The conditions of data set [1]: cited from earlier work.
For data set [2] the following is noted: cited from earlier work. The source holds these as a separate data set.
Data set [3] has as its system LDL cholesterol oxidation. Particulars: cited from earlier work.
The test system of data set [4] is pro-oxidant activity of Vioxx. Particulars: in vitro; cited from earlier work.
Data set [5] relates to C-Reactive Protein (C-RP). The note with it: cited from earlier work.
In another data set the test system is lens epithelial cells. Particulars: in vitro, at umol/L concentrations; cited from earlier work.
For data set [6] the following is noted: eight weeks of supplementation at 6 mg per day; cited from earlier work.
Data set [7] in a line: Stability of carotenoids blended with krill oil, UV analysis. It counts as physicochemical. From the text: Testing has determined that astaxanthin added to krill oil results in an unstable product with respect to recoverable astaxanthin by HPLC analysis. A chemical reaction most likely takes place between krill oil and at least astaxanthin in such mixtures. […] Had UV alone been used to determine product stability the decrease in recoverable astaxanthin over time would not have been observed. The test results, tables and charts of FIGS. 2-6 show the decrease in recoverable astaxanthin over time.
FIG. 2 is a chart showing data of astaxanthin at 13 days post formulation reacting with krill oil, but essentially neither lutein nor zeaxanthin. Astaxanthin is a keto-alcohol while lutein and zeaxanthin are alcohols and this can possibly make some difference. It should also be understood that the krill oil and “reacted” carotenoids, such as astaxanthin, and possibly zeaxanthin and lutein, lose their ability to be recovered over time from the mixture but can still be quantitated by ultraviolet (UV) analysis. For example, the chromophores of the carotenoids are not destroyed when the reaction takes place over time and can be used to develop a number of products useful for cardiovascular applications, joint health care applications, eye care and other diseases.
Referring now to the chart in FIG. 2, there are shown various samples and explanation. […]

In another data set the test system is lipid peroxidation. Particulars: relative to alpha-tocopherol; in vitro and in vivo studies; cited from earlier work.

In the case of `CC1=C(/C=C/C(C)=C/C=C/C(C)=C/C=C/C=C(C)/C=C/C=C(C)/C=C/C2=C(C)C(=O)[C@@H](O)CC2(C)C)C(C)(C)C[C@H](O)C1=O` [astaxanthin], the “potency in quenching singlet oxygen, times more potent than alpha-tocopherol” value in data set [1] (relative to alpha-tocopherol) was 550 times. Moreover, in [1] (relative to beta-carotene), the “potency in quenching singlet oxygen, times more potent than beta-carotene” value is 11 times. Further, in data set [1] (relative to lutein), the “potency in quenching singlet oxygen, times more potent than lutein” value is 27.5 times. For the same compound, the “potency in scavenging oxygen free radicals, times more potent than alpha-tocopherol” value in [2] (relative to alpha-tocopherol) is 14 times. For the same compound, the “potency in scavenging oxygen free radicals, times more potent than ascorbic acid (Vitamin C)” value in data set [2] (relative to ascorbic acid) is on record as 65 times. The “potency in scavenging oxygen free radicals, times more potent than beta-carotene” value in data set [2] (relative to beta-carotene) is given as 54 times. In data set [3] (3.6 mg per day for two weeks), the “protection of LDL cholesterol against induced in vitro oxidation” value is on record as “protects LDL cholesterol against induced in vitro oxidation”. Moreover, in data set [3] (4 mg per day for two weeks), the “reduction of LDL cholesterol oxidation” value is 26%. The “negation of pro-oxidant activity of Vioxx” value in data set [4] is “negate the pro-oxidant activity of Vioxx”. Besides, the “decrease in C-reactive protein scores” value in data set [5] (4 mg for eight weeks) was 21%. Further, in data set [5] (human subjects with high risk levels of C-RP, three months of treatment), the “drop in serum C-RP levels” value was 43%. Also, the “suppression of UVB induced lipid per-oxidative mediated cell damage” value in the data set with lens epithelial cells is “suppresses UVB induced lipid per-oxidative mediated cell damage”. In addition, the “negative effect in healthy adults” value in data set [6] is recorded as “no negative effect”. Further, the “UV quantification of the amount of astaxanthin added to blended product” value in [7] is recorded as about 100%. In addition, the “mean effective concentration which inhibits lipid peroxidation, times lower than that of alpha-tocopherol” value in the data set with lipid peroxidation is given as 500 times.

Values taken from patent publication US9351982B2, “Krill oil and reacted astaxanthin composition and associated method” (U.S. Nutraceuticals, LLC, priority 2009, dated 2016).
